From patent US20260042802A1, “POLYPEPTIDE AND USE THEREOF” (priority 2024, published 2026)
Like-named read-outs stand apart in the source and are kept apart here. Where a SMILES comes first, the peptide text is derived from it. Bridges are numbered along the chain shown (N, C = ends).

Experiments:
Format in all cases: cell-based
[1] = molecular target: T1, Nav1.5 (Homo sapiens, UniProt Q14524); test: Whole-cell patch clamp on Nav1.5 overexpressing HEK293 cells; settings: 300 nM; −90 mV to +40 mV, 30 ms; n=5
T1 construct: expressed in transfected cells; host or cells: HEK293
T1 sequence (Q14524 whole entry): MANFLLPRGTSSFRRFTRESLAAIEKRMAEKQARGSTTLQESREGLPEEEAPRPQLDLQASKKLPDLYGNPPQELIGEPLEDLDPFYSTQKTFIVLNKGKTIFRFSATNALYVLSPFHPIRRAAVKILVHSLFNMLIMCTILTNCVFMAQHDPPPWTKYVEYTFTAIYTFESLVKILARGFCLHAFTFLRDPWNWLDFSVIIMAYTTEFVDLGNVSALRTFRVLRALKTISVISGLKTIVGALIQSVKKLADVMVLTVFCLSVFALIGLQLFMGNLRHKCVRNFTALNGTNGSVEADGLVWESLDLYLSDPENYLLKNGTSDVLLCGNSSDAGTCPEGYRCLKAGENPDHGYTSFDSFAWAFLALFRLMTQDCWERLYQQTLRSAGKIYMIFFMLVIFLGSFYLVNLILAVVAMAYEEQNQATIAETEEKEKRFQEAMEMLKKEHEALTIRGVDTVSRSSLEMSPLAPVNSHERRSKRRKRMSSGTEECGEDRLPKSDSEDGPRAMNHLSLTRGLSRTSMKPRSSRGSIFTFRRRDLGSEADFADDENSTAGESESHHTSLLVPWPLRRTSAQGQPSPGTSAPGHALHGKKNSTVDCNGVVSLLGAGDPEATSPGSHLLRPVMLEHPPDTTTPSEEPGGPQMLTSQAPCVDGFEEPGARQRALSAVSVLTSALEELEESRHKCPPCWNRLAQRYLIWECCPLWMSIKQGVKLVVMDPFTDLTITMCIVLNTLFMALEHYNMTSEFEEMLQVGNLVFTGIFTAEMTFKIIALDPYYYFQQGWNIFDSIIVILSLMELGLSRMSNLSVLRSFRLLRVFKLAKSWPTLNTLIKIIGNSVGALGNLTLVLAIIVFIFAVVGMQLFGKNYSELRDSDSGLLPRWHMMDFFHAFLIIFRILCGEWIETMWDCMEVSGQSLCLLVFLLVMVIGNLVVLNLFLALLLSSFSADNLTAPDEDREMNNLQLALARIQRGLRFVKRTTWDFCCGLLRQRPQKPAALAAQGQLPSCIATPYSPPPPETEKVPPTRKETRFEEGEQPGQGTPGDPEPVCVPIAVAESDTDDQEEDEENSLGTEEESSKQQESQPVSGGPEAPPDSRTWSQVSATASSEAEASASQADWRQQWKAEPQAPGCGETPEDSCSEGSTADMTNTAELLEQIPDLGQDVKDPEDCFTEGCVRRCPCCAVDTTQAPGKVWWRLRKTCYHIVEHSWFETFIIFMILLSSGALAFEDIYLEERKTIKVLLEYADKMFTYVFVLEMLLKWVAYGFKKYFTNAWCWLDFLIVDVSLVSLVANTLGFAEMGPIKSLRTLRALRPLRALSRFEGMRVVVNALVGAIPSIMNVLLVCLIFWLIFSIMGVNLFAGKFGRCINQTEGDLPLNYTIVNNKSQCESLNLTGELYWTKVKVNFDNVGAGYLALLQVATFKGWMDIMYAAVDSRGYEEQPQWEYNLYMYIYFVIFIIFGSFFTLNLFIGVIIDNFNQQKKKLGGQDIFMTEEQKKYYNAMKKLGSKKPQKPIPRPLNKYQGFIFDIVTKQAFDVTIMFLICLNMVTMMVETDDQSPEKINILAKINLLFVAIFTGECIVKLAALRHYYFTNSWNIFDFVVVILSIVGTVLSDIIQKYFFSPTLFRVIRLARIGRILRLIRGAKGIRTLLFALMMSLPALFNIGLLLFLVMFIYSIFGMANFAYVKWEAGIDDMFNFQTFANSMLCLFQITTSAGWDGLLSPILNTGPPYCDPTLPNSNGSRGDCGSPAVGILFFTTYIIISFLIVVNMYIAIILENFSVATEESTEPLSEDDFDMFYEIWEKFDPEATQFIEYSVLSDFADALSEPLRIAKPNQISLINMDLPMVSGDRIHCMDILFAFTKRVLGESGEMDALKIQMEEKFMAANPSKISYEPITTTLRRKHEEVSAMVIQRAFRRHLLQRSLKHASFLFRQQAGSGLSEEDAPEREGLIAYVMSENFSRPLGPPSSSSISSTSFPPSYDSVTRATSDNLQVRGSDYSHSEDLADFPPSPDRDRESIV
Procedure: (§1) The effect of the polypeptide PPN-01 provided in Example 1 on voltage gated sodium channels is studied using the glass microelectrodes prepared as described above in Example 2 and employing the whole-cell membrane clamp techniques. The specific operations are as follows:
(§2) 1. Firstly, internal electrode solution is placed on ice to defrost; after defrosting, an appropriate amount of internal electrode solution is drawn up with a 1 ml syringe; and after a homemade filler is applied to the tip end of the syringe, the air in the tube is emptied to fill the entire filler with internal electrode solution. Secondly, internal electrode solution in the filler is poured into the glass microelectrode from a rear part thereof by using the rear part perfusion method; internal electrode solution is slowly injected into the glass microelectrode; and the amount of perfusion is generally ⅓ to ½ of a length of the glass microelectrode (it is necessary to ensure that the silver wire of the electrode may fully contact internal electrode solution, but also to avoid electrode contamination resulting from too much internal electrode solution). […]

[2] = molecular target: T2, Nav1.6 (Homo sapiens, UniProt Q9UQD0); test: Whole-cell patch clamp on Nav1.6 overexpressing HEK293 cells; settings: 300 nM; −90 mV to +40 mV, 30 ms; n=5
T2 construct: expressed in transfected cells; host or cells: HEK293
Procedure: as §1, §2

[3] = molecular target: T3, Nav1.7 channels (Homo sapiens, UniProt Q15858); test: Whole-cell patch clamp on Nav1.7 overexpressing HEK293 cells; settings: for inhibition at 0.3 µM: HEK293, 300 nM, n=6, read-out: current inhibition
T3 construct: expressed in transfected cells; host or cells: HEK293
T3 sequence (Q15858 whole entry): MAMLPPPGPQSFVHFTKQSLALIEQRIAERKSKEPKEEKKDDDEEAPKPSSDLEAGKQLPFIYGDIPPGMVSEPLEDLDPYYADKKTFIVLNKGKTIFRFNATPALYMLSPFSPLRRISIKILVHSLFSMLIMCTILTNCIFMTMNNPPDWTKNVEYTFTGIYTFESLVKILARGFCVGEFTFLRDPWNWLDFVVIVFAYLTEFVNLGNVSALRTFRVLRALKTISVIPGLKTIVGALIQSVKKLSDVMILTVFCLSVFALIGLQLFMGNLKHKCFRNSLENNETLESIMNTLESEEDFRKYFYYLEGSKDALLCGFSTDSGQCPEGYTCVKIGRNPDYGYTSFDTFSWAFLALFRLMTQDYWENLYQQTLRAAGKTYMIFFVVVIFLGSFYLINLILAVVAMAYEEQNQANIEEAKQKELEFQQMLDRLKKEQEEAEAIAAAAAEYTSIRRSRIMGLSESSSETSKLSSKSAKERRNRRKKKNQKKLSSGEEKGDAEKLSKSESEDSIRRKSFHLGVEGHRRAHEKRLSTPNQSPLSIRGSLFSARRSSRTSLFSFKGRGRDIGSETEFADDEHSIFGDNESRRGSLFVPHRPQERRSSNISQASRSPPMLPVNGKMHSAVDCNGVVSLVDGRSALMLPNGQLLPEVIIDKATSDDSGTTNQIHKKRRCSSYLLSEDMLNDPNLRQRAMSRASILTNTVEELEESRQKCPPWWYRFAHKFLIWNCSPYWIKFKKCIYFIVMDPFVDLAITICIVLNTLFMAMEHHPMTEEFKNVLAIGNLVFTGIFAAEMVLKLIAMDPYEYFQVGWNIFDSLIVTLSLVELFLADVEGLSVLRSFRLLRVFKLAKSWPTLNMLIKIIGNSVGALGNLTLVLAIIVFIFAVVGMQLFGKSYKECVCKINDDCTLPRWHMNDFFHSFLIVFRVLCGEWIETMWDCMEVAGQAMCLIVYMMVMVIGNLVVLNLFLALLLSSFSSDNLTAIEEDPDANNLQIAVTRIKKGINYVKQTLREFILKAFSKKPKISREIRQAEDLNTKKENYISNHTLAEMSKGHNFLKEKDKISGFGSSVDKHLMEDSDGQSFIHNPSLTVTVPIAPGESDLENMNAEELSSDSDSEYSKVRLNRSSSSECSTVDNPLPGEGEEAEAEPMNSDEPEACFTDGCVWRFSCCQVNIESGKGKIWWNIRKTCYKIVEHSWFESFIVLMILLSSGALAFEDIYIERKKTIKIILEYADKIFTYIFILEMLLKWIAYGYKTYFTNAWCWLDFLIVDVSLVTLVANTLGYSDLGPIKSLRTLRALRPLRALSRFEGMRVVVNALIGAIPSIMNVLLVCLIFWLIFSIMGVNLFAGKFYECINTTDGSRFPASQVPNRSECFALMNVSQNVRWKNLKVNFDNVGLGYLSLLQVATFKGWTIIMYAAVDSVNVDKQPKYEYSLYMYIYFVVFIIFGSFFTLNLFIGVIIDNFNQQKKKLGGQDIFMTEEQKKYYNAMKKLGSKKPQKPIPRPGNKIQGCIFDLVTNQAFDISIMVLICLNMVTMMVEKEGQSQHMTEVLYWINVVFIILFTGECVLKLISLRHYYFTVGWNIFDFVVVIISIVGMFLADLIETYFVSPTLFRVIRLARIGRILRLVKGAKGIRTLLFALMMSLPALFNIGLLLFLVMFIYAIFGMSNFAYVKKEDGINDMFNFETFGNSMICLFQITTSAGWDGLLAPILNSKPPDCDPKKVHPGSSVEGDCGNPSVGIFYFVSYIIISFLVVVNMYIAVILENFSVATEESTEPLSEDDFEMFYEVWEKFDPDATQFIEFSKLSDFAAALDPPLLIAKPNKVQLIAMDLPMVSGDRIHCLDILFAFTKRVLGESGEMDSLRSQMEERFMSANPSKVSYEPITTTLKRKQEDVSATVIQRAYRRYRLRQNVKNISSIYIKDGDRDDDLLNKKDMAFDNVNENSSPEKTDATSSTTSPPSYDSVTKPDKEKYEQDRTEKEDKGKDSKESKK
Procedure: The recording electrode used in the present example is a glass microelectrode, which is prepared as follows: The glass electrode blanks (outer diameter of 1.50 mm, inner diameter of 0.84 mm) are prepared into single-tube glass microelectrodes with tip diameters of 1-2 μm in four steps using the P-1000 Microelectrode Horizontal Puller for subsequent experiments. Be careful not to touch the heated platinum sheet in the center when pulling the electrode, and be careful not to touch the tip of the pulled electrode to prevent the tip from breaking. Since the tip of the glass microelectrode is highly susceptible to dust attraction, it is generally prepared for use now and should not be left overnight.
Glass microelectrodes are used as follows: rinse clean the glass microelectrodes before use; then put all the glass microelectrodes in a large beaker; add anhydrous ethanol so that the glass microelectrodes are completely immersed in anhydrous ethanol; and place the beaker in an ultrasonic cleaner with ultrasonic vibration for 30 min. Subsequently, pour out the anhydrous ethanol; rinse out the glass microelectrode with ultrapure water 3-4 times; use another small beaker to cover the microelectrode so as not to contaminate the electrode with dust; put the glass microelectrode into the oven for drying; and put the glass microelectrode into a clean box for spare use after drying.
In the patch clamp experiments, the measured sodium currents are corrected for leakage currents, and the primary data of the experiments are recorded using Clampfit 10.6, and the data acquisition is performed by the pCLAMP software. Three to five sweeps are selected for analysis, (sweep, which is a term used in patch clamp software and consists of a series of sampling points) in which the current is in a stable state before the addition of the polypeptide. The average value of the peak current is thus calculated as the control current amplitude. Then 3-5 sweeps in which the current is in a stable state after the addition of polypeptide are selected and analyzed, and the average value of the residual peak current is calculated as the residual current amplitude.
The electrical stimulation effect of polypeptides PPN-01 to PPN-16 on Nav1.7 overexpressing HEK293 cells is studied using the glass microelectrodes obtained from the above preparations and the whole-cell patch clamp techniques (n=1). In a voltage-clamp mode, the clamp voltage is kept at −90 mV; a square-wave stimulus depolarized from −90 mV to +40 mV with a duration of 30 ms is applied; the concentration of each dosing (polypeptide) is 300 nM; and validation is repeated for the six polypeptides that show a significant effect (n=2).
In a voltage-clamp mode, the clamp voltage is kept at −90 m V and a square-wave stimulus depolarized from −90 mV to +40 mV with a duration of 30 ms is applied.
2. The electrical stimulation effect of the polypeptide PPN-01 provided in Example 1 on Nav1.4, Nav1.5, Nav1.6, and Nav1.7 overexpressing HEK293 cells is studied using the glass microelectrodes obtained from the above preparations and employing the whole-cell patch clamp techniques (n=5). In a voltage-clamp mode, the clamp voltage is kept at −90 mV; a square-wave stimulus depolarized from −90 mV to +40 mV with a duration of 30 ms is applied; and a concentration of each dosing (polypeptide) is 300 nM.
3. After establishing whole-cell patch clamp configuration using glass microelectrodes filled with internal electrode solution and HEK293 cells overexpressing Nav1.4, Nav1.5, Nav1.6, or Nav1.7, the polypeptides provided in Example 1 are applied separately. In a voltage-clamp mode, the clamp voltage is kept at −90 m V and a square-wave stimulus depolarized from −90 m V to +40 m V with a duration of 30 ms is applied. […]

Which results are given for `CSCC[C@@H]1NC(=O)CNC(=O)[C@H](CCC(=O)O)NC(=O)[C@@H]2CSSC[C@H](NC(=O)[C@H](Cc3ccc(O)cc3)NC(C)=O)C(=O)N[C@@H](CCC(N)=O)C(=O)N[C@@H](CCCCN)C(=O)N[C@@H](Cc3ccccc3)C(=O)N[C@@H](CC(C)C)C(=O)N[C@@H](C)C(=O)N3CCC[C@H]3C(=O)N[C@H]3CSSC[C@H](NC(=O)[C@H](CCC(=O)O)NC1=O)C(=O)N[C@@H](CCCCN)C(=O)N[C@@H](CC(C)C)C(=O)N[C@@H](Cc1c[nH]c4ccccc14)C(=O)N[C@H](C(=O)N[C@@H](CCCCN)C(=O)N[C@@H](CCCCN)C(=O)N[C@@H](CCCCN)C(=O)N[C@@H](CC(C)C)C(=O)N[C@@H](Cc1c[nH]c4ccccc14)C(N)=O)CSSC[C@H](NC(=O)[C@H](CCCCN)NC(=O)[C@H](CCCNC(=N)N)NC(=O)[C@H](CCC(=O)O)NC(=O)[C@H](CO)NC(=O)[C@H](CC(=O)O)NC3=O)C(=O)N2` [PPN-01] (Ac-YCQKFLAPCDSERKCCEGMECKLWCKKKLW-NH2; disulfide 2-16, 9-21, 15-25)?
inhibition effect on Nav1.5 overexpressing HEK293 cells [1]: no significant inhibition effect; inhibition effect on Nav1.6 overexpressing HEK293 cells [2]: no significant inhibition effect; inhibition of Nav1.7 overexpressing HEK293 cells (current traces) ([3]; 300 nM polypeptide, clamp −90 mV, depolarized to +40 mV, 30 ms, vs negative control, n=1 (n=2 for six polypeptides)): significant inhibition; inhibition effect on Nav1.7 overexpressing HEK293 cells ([3]; 300 nM, −90 mV to +40 mV, 30 ms, n=5): significant inhibition effect; inhibition at 0.3 µM ([3]; membrane potential +40 mV): 89.6%; inhibition at 0.3 µM ([3]; membrane potential −30 mV): 73.6%; inhibition at 0.3 µM ([3]; membrane potential −40 mV): 43.6%; Hill coefficient ([3]; concentration-response of Nav1.7 peak current inhibition): 1.18
